For orientation: IC50 means the midpoint of a concentration-inhibition curve. Read a low IC50 as greater potency.

The target in test [1] is T1, Peripheral plasma membrane protein CASK (Homo sapiens) (UniProt O14936).
T1 sequence (whole entry): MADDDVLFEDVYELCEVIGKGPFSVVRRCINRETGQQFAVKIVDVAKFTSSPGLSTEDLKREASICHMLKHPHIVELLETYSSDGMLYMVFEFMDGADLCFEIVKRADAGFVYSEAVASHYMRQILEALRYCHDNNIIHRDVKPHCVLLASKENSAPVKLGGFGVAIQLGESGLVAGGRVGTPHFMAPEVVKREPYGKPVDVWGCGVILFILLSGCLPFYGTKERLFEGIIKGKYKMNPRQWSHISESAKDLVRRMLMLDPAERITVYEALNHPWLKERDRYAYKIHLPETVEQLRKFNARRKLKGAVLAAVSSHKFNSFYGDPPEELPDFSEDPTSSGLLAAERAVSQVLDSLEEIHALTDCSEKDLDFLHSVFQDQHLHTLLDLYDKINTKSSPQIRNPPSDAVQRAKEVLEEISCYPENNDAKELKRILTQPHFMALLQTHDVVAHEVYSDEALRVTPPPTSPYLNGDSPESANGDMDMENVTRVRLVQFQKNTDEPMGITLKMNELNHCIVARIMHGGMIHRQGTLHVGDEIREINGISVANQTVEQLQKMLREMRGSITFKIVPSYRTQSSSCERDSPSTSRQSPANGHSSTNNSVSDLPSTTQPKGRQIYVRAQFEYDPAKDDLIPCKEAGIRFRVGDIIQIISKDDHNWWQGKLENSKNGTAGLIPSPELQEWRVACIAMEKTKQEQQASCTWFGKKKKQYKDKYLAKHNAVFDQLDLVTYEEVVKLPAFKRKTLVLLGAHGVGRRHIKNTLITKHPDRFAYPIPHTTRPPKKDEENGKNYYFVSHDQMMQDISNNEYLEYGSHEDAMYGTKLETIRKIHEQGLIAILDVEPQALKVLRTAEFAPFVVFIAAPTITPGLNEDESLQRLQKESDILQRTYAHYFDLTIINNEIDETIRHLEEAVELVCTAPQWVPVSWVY
Description: Binding affinity to recombinant N-terminal His-tagged CASK (1 to 337 residues) (unknown origin) expressed in Escherichia coli assessed as change in melting temperature by SYPRO orange dye based DSF assay

The target in test [2] is T2, Tyrosine-protein kinase Mer (Homo sapiens) (UniProt Q12866).
T2 sequence (whole entry): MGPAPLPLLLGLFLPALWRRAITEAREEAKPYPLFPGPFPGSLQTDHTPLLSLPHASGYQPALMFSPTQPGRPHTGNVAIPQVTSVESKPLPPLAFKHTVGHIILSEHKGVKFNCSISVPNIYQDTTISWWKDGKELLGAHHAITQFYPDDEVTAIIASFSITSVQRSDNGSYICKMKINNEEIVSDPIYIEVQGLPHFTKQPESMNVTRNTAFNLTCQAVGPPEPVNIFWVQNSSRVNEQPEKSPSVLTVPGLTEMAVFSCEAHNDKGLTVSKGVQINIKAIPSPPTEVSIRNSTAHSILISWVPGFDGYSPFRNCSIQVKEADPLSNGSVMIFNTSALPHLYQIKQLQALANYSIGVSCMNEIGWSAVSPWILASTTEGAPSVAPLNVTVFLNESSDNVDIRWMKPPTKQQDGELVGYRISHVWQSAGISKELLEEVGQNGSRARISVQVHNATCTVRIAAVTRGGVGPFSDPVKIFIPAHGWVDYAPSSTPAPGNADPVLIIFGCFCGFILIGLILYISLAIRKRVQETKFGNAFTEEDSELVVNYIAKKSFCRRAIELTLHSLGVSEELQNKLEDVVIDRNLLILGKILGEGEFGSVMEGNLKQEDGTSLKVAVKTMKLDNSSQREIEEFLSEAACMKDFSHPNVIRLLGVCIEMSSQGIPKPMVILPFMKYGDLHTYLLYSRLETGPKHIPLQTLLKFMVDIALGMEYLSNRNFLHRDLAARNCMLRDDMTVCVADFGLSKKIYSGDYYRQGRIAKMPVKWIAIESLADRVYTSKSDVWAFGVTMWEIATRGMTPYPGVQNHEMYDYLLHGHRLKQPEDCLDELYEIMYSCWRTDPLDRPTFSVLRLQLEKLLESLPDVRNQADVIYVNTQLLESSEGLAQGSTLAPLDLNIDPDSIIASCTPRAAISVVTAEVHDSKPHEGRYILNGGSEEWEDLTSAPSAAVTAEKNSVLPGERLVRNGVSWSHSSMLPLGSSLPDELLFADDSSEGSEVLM
The test is described as follows: Binding affinity to MERTK (571 to 864 residue) (unknown origin) expressed in Escherichia coli Rosetta cells assessed as change in melting temperature by SYPRO orange dye based DSF assay. In general terms: Differential scanning fluorimetry follows unfolding on heating by fluorescence.

Test [3] concerns the target Tyrosine-protein kinase ABL1 (Homo sapiens, UniProt P00519).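 Further: thermal shift of non-phosphorylated ABL1 protein measured by differential scanning fluorimetry with SYPRO Orange dye.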
Description: Binding affinity to non-phosphorylated ABL1 (unknown origin) assessed as change in melting temperature by SYPRO orange dye based DSF assay
Test [4] has as its target Casein kinase I isoform epsilon (Homo sapiens, UniProt P49674). The experiment in a line: Binding affinity to CSNK1E (unknown origin) assessed as change in melting temperature by SYPRO orange dye based DSF assay.
A further test is filed under the species Homo sapiens. The test is described as follows: Binding affinity to MERTK-AXL mutant (unknown origin) expressed in Escherichia coli Rosetta cells assessed as change in melting temperature by SYPRO orange dye based DSF assay.
Test [5] deals with T3, Tyrosine-protein kinase receptor TYRO3 (Homo sapiens, UniProt Q06418).
T3 sequence (Q06418 whole entry): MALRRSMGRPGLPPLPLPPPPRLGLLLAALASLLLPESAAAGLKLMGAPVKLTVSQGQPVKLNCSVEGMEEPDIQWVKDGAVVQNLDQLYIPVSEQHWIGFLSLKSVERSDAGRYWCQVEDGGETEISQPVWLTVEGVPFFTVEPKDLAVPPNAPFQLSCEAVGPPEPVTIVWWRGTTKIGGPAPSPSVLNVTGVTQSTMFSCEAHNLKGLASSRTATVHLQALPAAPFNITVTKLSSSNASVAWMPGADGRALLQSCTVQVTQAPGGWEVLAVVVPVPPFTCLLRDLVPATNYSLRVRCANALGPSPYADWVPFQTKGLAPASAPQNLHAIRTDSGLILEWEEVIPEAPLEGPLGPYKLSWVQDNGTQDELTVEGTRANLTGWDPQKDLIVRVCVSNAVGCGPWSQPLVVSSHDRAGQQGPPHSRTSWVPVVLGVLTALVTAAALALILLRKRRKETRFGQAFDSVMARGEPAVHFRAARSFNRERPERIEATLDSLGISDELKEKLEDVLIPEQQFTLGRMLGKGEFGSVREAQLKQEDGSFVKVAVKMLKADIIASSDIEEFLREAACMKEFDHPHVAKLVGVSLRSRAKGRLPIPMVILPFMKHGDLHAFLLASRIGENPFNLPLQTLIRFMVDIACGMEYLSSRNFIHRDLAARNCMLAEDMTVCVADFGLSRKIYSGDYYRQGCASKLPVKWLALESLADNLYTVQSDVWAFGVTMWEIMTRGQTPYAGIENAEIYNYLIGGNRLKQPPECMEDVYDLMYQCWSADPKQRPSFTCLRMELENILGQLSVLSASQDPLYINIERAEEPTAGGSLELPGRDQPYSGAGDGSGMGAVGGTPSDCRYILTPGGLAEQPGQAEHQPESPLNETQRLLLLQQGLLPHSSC
The test is described as follows: Inhibition of tracer K5 binding to NanoLuc-fused TYRO3 (unknown origin) expressed in HEK293T cells measured after 2 hrs by NanoBRET assay. Format: cell-based. In general terms: Bioluminescence resonance energy transfer reports proximity on the nanometre scale.

Test [6] addresses T4, Tyrosine-protein kinase Mer (Homo sapiens, UniProt Q12866).
T4 sequence (Q12866 whole entry): T2 sequence (whole entry)
The test is described as follows: Inhibition of tracer K5 binding to NanoLuc-fused MERTK (unknown origin) expressed in HEK293T cells measured after 2 hrs by NanoBRET assay. It counts as cell-based.

Chain of Casein kinase I isoform epsilon (P49674 whole entry, looked up, canonical isoform): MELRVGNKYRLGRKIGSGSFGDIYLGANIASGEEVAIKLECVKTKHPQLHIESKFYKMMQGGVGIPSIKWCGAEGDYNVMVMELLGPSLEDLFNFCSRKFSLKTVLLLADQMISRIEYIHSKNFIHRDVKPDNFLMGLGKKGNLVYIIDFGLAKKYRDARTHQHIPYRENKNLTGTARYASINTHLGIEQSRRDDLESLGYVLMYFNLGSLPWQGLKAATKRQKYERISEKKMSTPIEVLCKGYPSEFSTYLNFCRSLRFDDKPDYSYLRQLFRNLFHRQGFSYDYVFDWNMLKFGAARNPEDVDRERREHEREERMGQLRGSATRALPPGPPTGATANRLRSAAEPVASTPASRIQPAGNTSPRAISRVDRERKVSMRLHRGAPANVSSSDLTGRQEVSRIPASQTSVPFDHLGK
Chain of Tyrosine-protein kinase ABL1 (P00519 whole entry, canonical isoform): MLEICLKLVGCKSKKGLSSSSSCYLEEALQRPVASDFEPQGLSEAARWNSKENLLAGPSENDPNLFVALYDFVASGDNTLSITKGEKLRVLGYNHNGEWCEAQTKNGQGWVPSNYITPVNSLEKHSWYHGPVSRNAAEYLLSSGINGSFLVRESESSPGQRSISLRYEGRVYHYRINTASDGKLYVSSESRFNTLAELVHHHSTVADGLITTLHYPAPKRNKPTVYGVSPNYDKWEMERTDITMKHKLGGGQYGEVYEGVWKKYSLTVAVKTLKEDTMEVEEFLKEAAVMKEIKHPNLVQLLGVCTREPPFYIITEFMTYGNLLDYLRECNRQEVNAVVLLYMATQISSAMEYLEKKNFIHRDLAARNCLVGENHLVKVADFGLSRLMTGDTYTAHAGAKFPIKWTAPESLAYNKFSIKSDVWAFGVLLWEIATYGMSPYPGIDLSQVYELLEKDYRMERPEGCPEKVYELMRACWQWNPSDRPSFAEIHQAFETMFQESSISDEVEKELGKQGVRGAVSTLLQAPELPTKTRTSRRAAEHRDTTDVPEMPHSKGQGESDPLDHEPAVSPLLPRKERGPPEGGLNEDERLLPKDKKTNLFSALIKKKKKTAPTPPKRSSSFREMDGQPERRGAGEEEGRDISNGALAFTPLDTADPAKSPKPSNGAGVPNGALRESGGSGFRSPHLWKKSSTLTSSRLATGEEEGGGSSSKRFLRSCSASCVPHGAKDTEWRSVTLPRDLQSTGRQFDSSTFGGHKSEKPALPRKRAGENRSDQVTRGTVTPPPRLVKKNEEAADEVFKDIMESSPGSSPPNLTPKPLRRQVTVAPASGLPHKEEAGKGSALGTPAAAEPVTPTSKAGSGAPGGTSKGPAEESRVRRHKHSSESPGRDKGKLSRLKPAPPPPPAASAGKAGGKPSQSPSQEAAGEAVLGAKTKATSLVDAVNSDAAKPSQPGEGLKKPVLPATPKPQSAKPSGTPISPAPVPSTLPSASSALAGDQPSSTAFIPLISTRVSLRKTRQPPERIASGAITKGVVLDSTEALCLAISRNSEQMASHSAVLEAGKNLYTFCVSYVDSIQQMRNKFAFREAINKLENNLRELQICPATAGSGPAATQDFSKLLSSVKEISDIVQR

For the compound `O=C(NCCCN1CCOC1=O)c1cnc(NCc2cc(Br)ccc2Br)nc1NC1CCCC1`, the deltaTm in test [1] was 5.1 K; in test [2], -0.6 K; in test [3], 6 K; in test [4], 3.6 K; in the test filed under Homo sapiens it was 0.2 K.
Regarding `O=C(NCCCN1CCCC1=O)c1cnc(NCc2cc(Br)ccc2Br)nc1NC1CCCC1`, the deltaTm is -0.7 K in test [2], 6.3 K in test [3], 4.4 K in test [4] and 0.2 K in the test listed under Homo sapiens.
As to `O=C(NCCCN1CCCC1=O)c1cnc(NCc2cc(Cl)ccc2Cl)nc1NC1CCCCC1`, the deltaTm was 5.7 K in test [1]; -0.2 K in test [2]; 7.7 K in test [3]; 5 K in test [4]; 0.1 K in the test listed under Homo sapiens.
For `O=C(NCCCN1CCCC1=O)c1cnc(NCc2ccc(Br)cc2)nc1NC1CCCC1` the same measures were 1.2 K, -0.1 K, 6.8 K, 2.2 K and 0 K.
The corresponding values for `O=C(NCCCN1CCCC1=O)c1cnc(NCc2ccccc2Br)nc1NC1CCCC1` are 4.8 K, -0.5 K, 7 K, 4.4 K and -0.1 K.
The corresponding values for `O=C(NCCCN1CCCC1=O)c1cnc(NCc2ccccc2Cl)nc1NC1CCCC1` are 3.3 K, -0.1 K, 5.9 K, 4.8 K and -0.2 K.
Consider `Cc1ccc(CNc2ncc(C(=O)NCCCN3CCOC3=O)c(NC3CCCCC3)n2)c(Br)c1`, for which the deltaTm in test [1] was 6 K; in test [2], 0.7 K; in test [3], 6.2 K; in test [4], 1.5 K; in the test filed under Homo sapiens, -0.1 K.
For `O=C(NCCCN1CCCC1=O)c1cnc(NCc2cc(Cl)ccc2Cl)nc1Nc1ccccc1` the same measures were 1.4 K, -0.7 K, 2.9 K, 3.6 K and -0.3 K.
For `O=C(NCCCN1CCCC1=O)c1cnc(NCc2ccccc2)nc1NC1CCCC1` the same measures were 0.8 K, 0.5 K, 4.5 K, 4.3 K and 0.4 K.
Take `O=C(NCCCN1CCCC1=O)c1cnc(NCc2cc(Cl)ccc2Cl)nc1NC1CC1`: the deltaTm in test [1] is 1.4 K; in test [2], -0.4 K; in test [3], 4.9 K; in test [4], 4 K; in the test listed under Homo sapiens it was -0.2 K.
For `COc1ccc(OC)c(CNc2ncc(C(=O)NCCCN3CCCC3=O)c(NC3CCCC3)n2)c1`, the deltaTm is 0.8 K in test [1]; -0.5 K in test [2]; 0.7 K in test [3]; 0.4 K in test [4]; -0.2 K in the test listed under Homo sapiens.
For `Cc1ccc(CNc2ncc(C(=O)NCCCN3CCOC3=O)c(NC3CCCC3)n2)c(Br)c1` the same measures were 6.1 K, -0.2 K, 5.8 K, 0.1 K and -0.1 K.
In test [5], `CCN(Cc1ccccc1)c1ncc(C(=O)NCCCN2CCCC2=O)c(NC2CCCC2)n1` had an IC50 above 10 µM.
As to `O=C(NCCCN1CCCC1=O)c1cnc(NCc2cc(Cl)ccc2Cl)nc1NC1CCCC1`, the deltaTm was -0.7 K in test [2], 6 K in test [3], 4.8 K in test [4] and -0.2 K in the test filed under Homo sapiens.
On to `O=C(NCCCN1CCCC1=O)c1cnc(NCc2cc(F)ccc2F)nc1NC1CCCC1`, for which the deltaTm in test [2] worked out at 0.6 K; in test [3] it was 6.1 K; in test [4], 5.9 K; in the test filed under Homo sapiens, 0.3 K. The compound also had an IC50 in test [6] of 4.48 µM.
On to `CN[C@@H]1C[C@H]2O[C@@](C)([C@@H]1OC)n1c3ccccc3c3c4c(c5c6ccccc6n2c5c31)C(=O)NC4`, for which the deltaTm was 4.8 K in test [2] and 2.3 K in test [4].
`O=C(NCCCN1CCCC1=O)c1cnc(NCc2cccc(Br)c2)nc1NC1CCCC1`: the deltaTm in test [1] was 3.8 K; in test [2] it was 0.6 K; in test [3], 6.9 K; in test [4], 6.5 K; in the test listed under Homo sapiens it was 0.3 K.
